According to patent US4160829A, “Antibacterial 1,2,4-oxadiazolylacetamido cephalosporins” (Gist-Brocades N.V., priority 1972, dated 1979):
Converted amounts (≈) assume the structure as drawn.

What was measured:
Staph.aureus A 321 = test: agar serial dilution test; format: cell-based, Staphylococcus aureus; conditions: Staphylococcus aureus, A321, 24 h, agar serial dilution, 24 hours, 37° C.; read-out: minimal inhibitory concentration (MIC)
Prot.mirab. L 93 = test: agar serial dilution test; format: cell-based, Proteus mirabilis; conditions: Proteus mirabilis; agar serial dilution, 24 hours, 37° C.; read-out: minimal inhibitory concentration (MIC)
Pseud.aerug. 2396 = test: agar serial dilution test; format: cell-based; conditions: agar serial dilution, 24 hours, 37° C.; read-out: minimal inhibitory concentration (MIC)
Salm.typh. R 172 = test: agar serial dilution test; format: cell-based; conditions: 24 h, read-out: minimal inhibitory concentration (MIC)
Prot.morg. 2241 = test: agar serial dilution test; format: cell-based; conditions: 24 h, agar serial dilution, 24 hours, 37° C.; read-out: minimal inhibitory concentration (MIC)
Strep.haem A 1088 = test: agar serial dilution test; format: cell-based, Streptococcus haemolyticus; conditions: Streptococcus, A1088, 24 hours, 37° C., read-out: minimal inhibitory concentration (MIC)
Strep. faec. L 80 = test: agar serial dilution test; format: cell-based, Streptococcus faecalis; conditions: Enterococcus faecalis; agar serial dilution, 24 hours, 37° C.; read-out: minimal inhibitory concentration (MIC)
Staph.aureus A 2001 [1] = test: agar serial dilution test; format: cell-based, Staphylococcus aureus; conditions: Staphylococcus aureus, A2001, 24 h, agar serial dilution, 24 hours, 37° C.; read-out: minimal inhibitory concentration (MIC)
Past.multo. A 723 = test: agar serial dilution test; format: cell-based, Pasteurella multocida; conditions: Pasteurella multocida; agar serial dilution, 24 hours, 37° C.; read-out: minimal inhibitory concentration (MIC)
[2] = test system: Pseud.aerug. Wyeth A 1058; test: agar serial dilution test; format: cell-based; conditions: agar serial dilution, 24 hours, 37° C.; read-out: minimal inhibitory concentration (MIC)
Dipl.pneum. L 54 = test: agar serial dilution test; format: cell-based, Diplococcus pneumoniae; conditions: Streptococcus pneumoniae; agar serial dilution, 24 hours, 37° C.; read-out: minimal inhibitory concentration (MIC)
Kleb.pneum. A 809 = test: agar serial dilution test; format: cell-based, Klebsiella pneumoniae; conditions: Klebsiella pneumoniae; agar serial dilution, 24 hours, 37° C.; read-out: minimal inhibitory concentration (MIC)
Staph.aureus A 2000 [3] = test: agar serial dilution test; format: cell-based, Staphylococcus aureus; conditions: Staphylococcus aureus, A2000, 24 h, agar serial dilution, 24 hours, 37° C.; read-out: minimal inhibitory concentration (MIC)
Staph.aureus A 2001 [4] = test: micro serial dilution test; format: cell-based, Staphylococcus aureus; conditions: Staphylococcus aureus, A2001, 18 h, micro serial dilution (in brackets), about 18 hours, 30° C. or 37° C.; read-out: minimal inhibitory concentration (MIC)
Prot.mirab. H 3 = test: agar serial dilution test; format: cell-based, Proteus mirabilis; conditions: Proteus mirabilis; agar serial dilution, 24 hours, 37° C.; read-out: minimal inhibitory concentration (MIC)
Bruc. Suis A 2126 = test: agar serial dilution test; format: cell-based; conditions: Brucella suis, 24 h, read-out: minimal inhibitory concentration (MIC)
Haem.Suis A 2096 = test: micro serial dilution test; format: cell-based; conditions: micro serial dilution (in brackets), about 18 hours, 30° C. or 37° C.; read-out: minimal inhibitory concentration (MIC)
Prot.mirab. A 1200 = test: agar serial dilution test; format: cell-based, Proteus mirabilis; conditions: Proteus mirabilis, 24 h, agar serial dilution, 24 hours, 37° C.; read-out: minimal inhibitory concentration (MIC)
Staph.aureus A 355 [5] = test: agar serial dilution test; conditions: Staphylococcus aureus, A355, 24 h, read-out: minimal inhibitory concentration (MIC), agar serial dilution, 24 hours, 37° C.; penicillinase-producing strain
Bac.Subt.ATCC 6633 = test: agar serial dilution test; format: cell-based, Bacillus subtilis; conditions: Bacillus subtilis, ATCC6633, 24 h, agar serial dilution, 24 hours, 37° C.; read-out: minimal inhibitory concentration (MIC)
Staph.aureus A 355 [6] = test: micro serial dilution test; format: cell-based, Staphylococcus aureus; conditions: Staphylococcus aureus, A355; micro serial dilution (in brackets), about 18 hours, 30° C. or 37° C.; penicillinase-producing strain; read-out: minimal inhibitory concentration (MIC)
Staph.aureus A 2000 [7] = test: micro serial dilution test; format: cell-based, Staphylococcus aureus; conditions: Staphylococcus aureus, A2000, 18 h, micro serial dilution (in brackets), about 18 hours, 30° C. or 37° C.; read-out: minimal inhibitory concentration (MIC)
Actinob.equ. T 3 = test: agar serial dilution test; format: cell-based; conditions: 24 hours, 37° C., read-out: minimal inhibitory concentration (MIC)
Salm.dubl. P 43 = test: agar serial dilution test; format: cell-based, Salmonella dublin; conditions: Salmonella enterica; agar serial dilution, 24 hours, 37° C.; read-out: minimal inhibitory concentration (MIC)
Esch.coli U 20 = test: agar serial dilution test; format: cell-based, Escherichia coli; conditions: Escherichia coli, U20; agar serial dilution, 24 hours, 37° C.; read-out: minimal inhibitory concentration (MIC)
Pseud.aerug. H 10 = test: agar serial dilution test; format: cell-based; conditions: agar serial dilution, 24 hours, 37° C.; read-out: minimal inhibitory concentration (MIC)
Prot.rettg. A 821 [8] = test: agar serial dilution test; format: cell-based, Proteus rettgeri; conditions: Providencia rettgeri, 24 h, agar serial dilution, 24 hours, 37° C.; read-out: minimal inhibitory concentration (MIC)
Salm.typh. R 127 = test: agar serial dilution test; format: cell-based; conditions: 24 h, 37° C., read-out: minimal inhibitory concentration (MIC)
Prot.rettg. A 821 [9] = test: micro serial dilution test; format: cell-based, Proteus rettgeri; conditions: Providencia rettgeri; micro serial dilution (in brackets), about 18 hours, 30° C. or 37° C.; read-out: minimal inhibitory concentration (MIC)
pKa determined in water = format: physicochemical
Strep.haem. A 266 [10] = test: agar serial dilution test; format: cell-based, Streptococcus haemolyticus; conditions: Streptococcus; agar serial dilution, 24 hours, 37° C.; read-out: minimal inhibitory concentration (MIC)
Bruc.melit. A 488 = test: microbe, parasite or virus in culture; format: cell-based; conditions: Brucella melitensis, 24 h, read-out: minimal inhibitory concentration (MIC)
Haem.infl. A 1030 [11] = test: agar serial dilution test; format: cell-based; conditions: 24 hours, 37° C., read-out: minimal inhibitory concentration (MIC)
Shig.equir. T 3 = test: agar serial dilution test; format: cell-based; conditions: 24 h, 37° C., read-out: minimal inhibitory concentration (MIC)
Strep.haem. A 266 [12] = test: micro serial dilution test; format: cell-based, Streptococcus haemolyticus; conditions: Streptococcus; micro serial dilution (in brackets), about 18 hours, 30° C. or 37° C.; read-out: minimal inhibitory concentration (MIC)
Haem.infl. A 1030 [13] = test: micro serial dilution test; format: cell-based; conditions: 18 h, micro serial dilution (in brackets), about 18 hours, 30° C. or 37° C.; read-out: minimal inhibitory concentration (MIC)

| Compound | MIC (Staph.aureus A 321) [µg/mL] | MIC (Prot.mirab. L 93) [µg/mL] | MIC (Pseud.aerug. 2396) [µg/mL] | MIC (Prot.morg. 2241) [µg/mL] | MIC (Strep. faec. L 80) [µg/mL] | MIC (Staph.aureus A 2001 [1]) [µg/mL] | MIC (Past.multo. A 723) [µg/mL] | MIC [2] [µg/mL] | MIC (Dipl.pneum. L 54) [µg/mL] | MIC (Kleb.pneum. A 809) [µg/mL] | MIC (Staph.aureus A 2000 [3]) [µg/mL] | MIC (Staph.aureus A 2001 [4]) [µg/mL] | MIC (Prot.mirab. H 3) [µg/mL] | MIC (Prot.mirab. A 1200) [µg/mL] | MIC (Staph.aureus A 355 [5]) [µg/mL] | MIC (Bac.Subt.ATCC 6633) [µg/mL] | MIC (Staph.aureus A 355 [6]) [µg/mL] | MIC (Salm.dubl. P 43) [µg/mL] | MIC (Esch.coli U 20) [µg/mL] | MIC (Pseud.aerug. H 10) [µg/mL] | other results |
| --- | --- | --- | --- | --- | --- | --- | --- | --- | --- | --- | --- | --- | --- | --- | --- | --- | --- | --- | --- | --- | --- |
| CCc1nc(CC(=O)N[C@@H]2C(=O)N3C(C(=O)O)=C(CSc4nnc(C)s4)CS[C@H]23)no1 [41 A, Sodium 7-[5-ethyl-1,2,4-oxadiazol-3-yl-acetamido]-3-[5-methyl-1,3,4-thiadiazol-2-yl-mercaptomethyl]-3-cephem-4-carboxylate] | 0.25 | 6 | 100 | 100 | 50 | 0.5 | 1.5 | 100 | 0.75 | 6 | 0.5 | 0.15 | 100 | 100 | 0.75 | 0.25 | 0.3 | 12.5 | 3 | 100 | MIC (Salm.typh. R 172): 50 µg/mL; MIC (Strep.haem A 1088): 0.06 µg/mL; MIC (Bruc. Suis A 2126): 6 µg/mL; MIC (Haem.Suis A 2096): 15 µg/mL; MIC (Staph.aureus A 2000 [7]): 0.23 µg/mL; MIC (Actinob.equ. T 3): 12.5 µg/mL; MIC (Prot.rettg. A 821 [8]): 1.5 µg/mL |
| Cc1nnc(SCC2=C(C(=O)O)N3C(=O)[C@@H](NC(=O)Cn4cnnn4)[C@H]3SC2)s1 [Cephazolin, reference compound] | 0.25 (≈ 0.55 µM) | 1.5 (≈ 3.3 µM) | > 100 | 25 (≈ 55 µM) | 12.5 (≈ 27.5 µM) | 0.5 (≈ 1.1 µM) | 1.5 (≈ 3.3 µM) | > 100 | 0.25 (≈ 0.55 µM) | 1.5 (≈ 3.3 µM) | 0.75 (≈ 1.65 µM) | 0.45 (≈ 0.99 µM) | 6 (≈ 13.2 µM) | 6 (≈ 13.2 µM) | 1.5 (≈ 3.3 µM) | 0.25 (≈ 0.55 µM) | 0.6 (≈ 1.32 µM) | 1.5 (≈ 3.3 µM) | 1.5 (≈ 3.3 µM) | > 100 | MIC (Salm.typh. R 127): 3 µg/mL (≈ 6.6 µM); MIC (Prot.rettg. A 821 [9]): 1.2 µg/mL (≈ 2.64 µM); MIC (Staph.aureus A 2000 [7]): 0.9 µg/mL (≈ 1.98 µM) |
| Cc1noc(CC(=O)O)n1 [Example 1, 3-methyl-1,2,4-oxadiazol-5-yl-acetic acid] | – | – | – | – | – | – | – | – | – | – | – | – | – | – | – | – | – | – | – | – | pKa (pKa determined in water): 3.64 |
| Cc1nc(CC(=O)O)no1 [Example 4, 5-methyl-1,2,4-oxadiazol-3-yl-acetic acid] | – | – | – | – | – | – | – | – | – | – | – | – | – | – | – | – | – | – | – | – | pKa (pKa determined in water): ~3.4 |
| CC1(C)S[C@@H]2[C@H](NC(=O)Cc3nc(-c4c(Cl)cccc4Cl)no3)C(=O)N2[C@H]1C(=O)O [Example 11A, 6-{[3-(2,6-dichlorophenyl)-1,2,4-oxadiazol-5-yl]-acetamido}penicillanic acid] | 0.06 (≈ 0.127 µM) | > 100 | > 100 | > 100 | 25 (≈ 53 µM) | – | 3 (≈ 6.37 µM) | > 100 | 3 (≈ 6.37 µM) | > 100 | 3 (≈ 6.37 µM) | – | > 100 | – | 3 (≈ 6.37 µM) | 0.06 (≈ 0.127 µM) | – | > 100 | > 100 | > 100 | MIC (Strep.haem. A 266 [10]): 1 µg/mL (≈ 2.12 µM); MIC (Bruc.melit. A 488): 3 µg/mL (≈ 6.37 µM); MIC (Haem.infl. A 1030 [11]): 100 µg/mL (≈ 212 µM); MIC (Shig.equir. T 3): 25 µg/mL (≈ 53 µM); MIC (Prot.rettg. A 821 [8]): > 100 µg/mL |
| CCc1noc(CC(=O)N[C@@H]2C(=O)N3[C@@H]2SC(C)(C)[C@@H]3C(=O)O)n1 [Example 11G, sodium 6-[(3-ethyl-1,2,4-oxadiazol-5-yl)-acetamido]-penicillanate H2 O] | 0.12 | 12.5 | > 100 | > 100 | 3 | 1 | 1 | > 100 | 0.25 | > 100 | 1.5 | 3.7 | > 100 | 100 | 3 | 0.03 | 30 | 12.5 | 100 | > 100 | MIC (Strep.haem. A 266 [12]): 0.5 µg/mL; MIC (Bruc.melit. A 488): 1.5 µg/mL; MIC (Salm.typh. R 127): 25 µg/mL; MIC (Haem.infl. A 1030 [13]): 125 µg/mL; MIC (Shig.equir. T 3): 10 µg/mL; MIC (Staph.aureus A 2000 [7]): 23 µg/mL; MIC (Prot.rettg. A 821 [8]): 3 µg/mL |
